Data on 1 compound can be found in publication PMC9936145, “Discovery of a cytochrome P450 enzyme catalyzing the formation of spirooxindole alkaloid scaffold” (Frontiers in Plant Science, 2023).

In general, Km refers to the concentration of substrate that gives half-maximal velocity.

The test system of the assay is 3eCIS (MsCYP72056). To be noted: 250 µM NADPH; HEPES pH 7.5; 0-300 µM hirsuteine; CPR co-expressed.

On to `C=C[C@H]1CN2CCc3c([nH]c4ccccc34)[C@H]2C[C@@H]1/C(=C\OC)C(=O)OC` [hirsuteine], for which the Michaelis constant (Km) came to 68.3 µM.
